The results in this text go back to patent US20170051149A1, “AZOARYLS AS REVERSIBLY MODULATABLE TUBULIN INHIBITORS” (ECOLE NORMALE SUPERIEURE DE LYON, priority 2014, published 2017).

Series [1] can be described thus: UV-Vis absorption spectra of trans and cis isomers (λstrong, εE, λiso). It is filed as physicochemical. The method, then: A(λmeas, λirrad) is used to indicate the measured UV-Vis absorption spectrum in the range 340 nm<λmeas<650 nm, as a function of the irradiating wavelength λirrad once PSS(λirrad) has been established. UV-Vis measurement of A(λmeas, λirrad) was performed. It was considered that the PSS had been established when the absorbance profile ceased to alter under continued irradiation. An isosbestic point (wavelength λiso) was found for each compound by examining where the absorption A(λmeas) was invariant with respect to changing λirrad. A(λmeas, dark) was also acquired with samples that had been kept in the dark for at least several hours, and it was assumed that no significant spectral contribution from the cis isomer was present in these spectra. […]
HPLC (high-performance liquid chromatography) was then used as described in Part A to measure ε*E(λ) and ε*Z(λ) (the separated absorption profiles of trans and cis isomers respectively, in arbitrary units which are not intercomparable in an absolute sense). It was approximated that these spectra would be identical in shape if measured under the UV-Vis conditions, so once ε*E(λ) and ε*Z(λ) were scaled appropriately relative to each other, these scaled spectra could be used to deconvolute A(λmeas, λirrad). This approximation was considered useful especially in the regions of greatest spectral interest, ie. regions of relatively strong absorption (since only rather well-absorbed wavelengths will allow significant photoisomerisation under finite photon flux). To place the arbitrary-unit absorption spectra on an absolute scale, the maximal absorption wavelength λstrong of the trans-isomer was first selected by examining A(λmeas, dark): typically, λstrong≈380 nm. with Expressing A(λstrong, dark) in units M^−1cm^−1, ε*E(λstrong) was then scaled so that εE(λstrong)=A(λstrong, dark), giving:
εE(λ)=ε*E(λ)×[A(λstrong,dark)/ε*E(λstrong)]
and the isosbestic point was used to scale the cis-isomer spectrum as per:
εZ(λ)=ε*Z(λ)×[εE(λiso)/ε*Z(λiso)]
However, using A(λstrong, dark) was preferred, since A(λiso) was typically so much smaller that the standard deviation in the scaled absorptivities which it generated was far greater.
Absorption spectra in cuvette (“UV-Vis”) were acquired on a Varian CaryScan 50 (1 cm, 100 μL or 1 mL volume) with Peltier cell temperature control unit maintained at 37° C., in PBS at pH˜7.4 containing a low percentage of cosolvent if needed (typically 2% MeCN or 5% DMSO). A ThorLabs Polychrome V monochromator with a fibre optic cable output directed into the cuvette was used to perform photoisomerisation studies by UV-Vis spectrophotometry although single LEDs of approximately 10-20 mW output, 15-20° cone angle, and 10-15 nm bandwidth FWHM, obtained commercially from Roithner Lasertechnik GmbH, were equally successful in providing repeatable monochromatic photoisomerisation. Separated spectra of trans and […] forms were acquired from the inline Diode Array Detector on the AGILENT 1260 SL coupled LC-MS system after HPLC separation. Fluorescence spectrophotometry (excitation and emission spectra) were acquired on a Varian CaryEclipse fluorescence spectrophotometer.
By the above procedure, the trans- and cis-isomers of each species were separated by HPLC as described in Part A, and ε*E(λ) and ε*Z(λ) were measured on the inline ultraviolet/visible Diode Array Detector; these were then scaled as outlined above. The parameters λstrong, εE(λstrong) and λiso are tabulated for selected compounds below (Table 1).

The nature of series [2]: thermal reversion halflife of spontaneous cis->trans isomerisation. In kind it is physicochemical. The text has this: Finally, trends in τ were ascertained by establishing the PSS at λstrong, then turning off the light source at time t0, and measuring A(λstrong, t) over time. Data were acquired for half an hour, or else the first three halflives (whichever was the shorter period), then fitted to the equation:
A(λstrong,t)=A(λstrong,dark)−[A(λstrong,dark)−A(λstrong,t0)]×e^−kt
This fit was used to return an in vitro halflife τ* for the cis->trans spontaneous thermal reversion isomerisation process, defined as τ=ln 2/k. It should be noted however, that azoaryl compounds' thermal reversion rates are known to depend strongly upon their microenvironment, such as pH and solvent/solvation effects^[7,38]. This was shown for compound (I.1), where a change of only 1.4 pH units gave a 25% change in τ*; note that different compounds are expected to respond very differently to changes in pH so no unifying trends are expected. Therefore the τ* acquired in vitro were considered appropriate only for qualitative intercomparison between samples (trend of τ* vs structure), rather than quantitative prediction of the τ values which might be experienced in cellulo or in vivo. Indeed, these in vitro τ* values appeared at least three times longer than what would have been expected based on in cellulo experiments where the pause time between activating pulses was varied.
Thermal reversion times were measured as described above. Those for selected compounds are presented below (Table 2).

[3] abbreviates: fluorophore moiety range above 510 nm, PBS pH = 7.4, 20% MeCN.

Consider `COc1ccc(N=Nc2cc(OC)c(OC)c(OC)c2)cc1O` [I.1, 2-methoxy-5-((3,4,5-trimethoxyphenyl)diazenyl)phenol], for which the “εE(λstrong)” value in series [1] (PBS pH = 6, 20% MeCN) was determined as 17100 M⁻¹ cm⁻¹; in series [1] (PBS pH = 7.4, 20% MeCN), 17700 M⁻¹ cm⁻¹. The λiso in series [1] (PBS pH = 6, 20% MeCN) is reported as 465 nm; in series [1] (PBS pH = 7.4, 20% MeCN), 470 nm. The λstrong is recorded as 380 nm in series [1] (PBS pH = 6, 20% MeCN) and 375 nm in series [1] (PBS pH = 7.4, 20% MeCN). Moreover, the “τ, reversion time” value in series [2] (PBS pH = 6, 20% MeCN) was found to be 8.4 min; in series [2] (PBS pH = 7.4, 20% MeCN), 6.2 min.
As to `CCN(CC)c1ccc2c(-c3ccccc3C(=O)N3CCN(CCCOc4c(N=Nc5cc(OC)c(OC)c(OC)c5)ccc(OC)c4C)CC3)c3ccc(=[N+](CC)CC)cc-3oc2c1.CCN(CC)c1ccc2c(-c3ccccc3C(=O)N3CCN(CCCOc4c(N=Nc5cc(OC)c(OC)c(OC)c5)ccc(OC)c4C)CC3)c3ccc(=[N+](CC)CC)cc-3oc2c1.O=C[O-].O=C[O-]` [I.25, N-(6-(diethylamino)-9-(2-(4-(3-(3-methoxy-2-methyl-6-((3,4,5-trimethoxyphenyl)diazenyl)phenoxy)propyl)piperazine-1-carbonyl)phenyl)-3H-xanthen-3-ylidene)-N-ethylethanaminium bis(formate) salt], in series [1] (PBS pH = 7.4, 20% MeCN), the “εE(λstrong)” value is 15300 M⁻¹ cm⁻¹, the λiso is reported as 460 nm and the λstrong is reported as 375 nm. For the same compound, in series [1] (setting [3]), the “εE(λstrong)” value is “(66600) M^−1cm^−1” and the λstrong entry was “(565) nm”. Further, the λiso result in series [1] (fluorophore moiety range, A(λ > 510) invariant upon photoswitching) was “(510 ff) nm”. The “τ, reversion time” value in series [2] (PBS pH = 7.4, 20% MeCN) came to 16.2 min.
